Laboratory results published in US8802866B2, “Pyridinylimidazolone derivatives for the inhibition of PI3 kinases” (Merck Patent GmbH, priority 2009, dated 2014).

How the values were obtained:
DNA-PK protein complex = DNA-PK protein complex (Homo sapiens, UniProt P78527); experiment: Biochemical DNA-PK assay (FlashPlate)
Protocol: The kinase assay is carried out in […] microtitre FlashPlates®, coated with streptavidin. […] The reaction is stopped by addition of 50 μl/well of 200 mM EDTA. After incubation for 30 minutes, the liquids are removed at room temperature. Each well is washed three times with 100 μl of 0.9% NaCl solution. Non-specific reaction (blank) is determined using a proprietary kinase inhibitor (10 μM). The radioactivity is measured by means of a Topcount. […] Todd Eary, J. G. Schiro, H. Huang, L. E. Burgess, E. A. Kesicki, and J. Halbrook.

[1] = test system: PI3K-dependent phosphorylation of PKB at Serin 473 in PC3 cells; experiment: Cellular PI3K assay (P-S473-PKB Luminex assay in PC3 cells); assay type: cell-based; conditions: Homo sapiens, PC-3, 0.5 h; PC3 cells, 30 min, serum-free, P-S473-PKB; read-out: IC50 (cell)
Protocol: The cellular assay for determination of the P-S473-PKB level is carried out as a Luminex assay in 96-well format in PC3 cells.
PC3 cells are sown out with 20,000 cells per well in 100 μl medium (45% […]/45% Ham's F12/10% FCS) and incubated on the following day for 30 min with a serial dilution of the test substance (7 concentrations) under serum-free conditions. The cells are subsequently lysed using 90 μl of lysis buffer (20 mM Tris/HCl pH 8.0, 150 mM NaCl, 1% NP40, 10% glycerol, 1% phosphatase inhibitor I, 1% phosphatase inhibitor II, 0.1% protease inhibitor cocktail III, 0.01% benzonase) per well, and the lysates are separated off from insoluble cell constituents by means of centrifugation through a 96-well filter plate (0.65 μm). The lysates are incubated overnight at 4° C. with shaking with Luminex beads to which an anti-total PKB antibody is coupled. The detection is carried out on the following day by addition of a P-S473-PKB antibody and a species-specific PE-labelled secondary antibody. The detection of P-S473-PKB is carried out by measurement in a Luminex100 instrument by determination of 100 events per cavity in a measurement time of 60 sec.

PI3Kbeta = PI3Kbeta (Homo sapiens, UniProt P42338); experiment: Biochemical PI3Kbeta assay (neomycin SPA, lipid phosphorylation); conditions: human recombinant GST-PI3K
PI3Kbeta, sequence (P42338 whole entry): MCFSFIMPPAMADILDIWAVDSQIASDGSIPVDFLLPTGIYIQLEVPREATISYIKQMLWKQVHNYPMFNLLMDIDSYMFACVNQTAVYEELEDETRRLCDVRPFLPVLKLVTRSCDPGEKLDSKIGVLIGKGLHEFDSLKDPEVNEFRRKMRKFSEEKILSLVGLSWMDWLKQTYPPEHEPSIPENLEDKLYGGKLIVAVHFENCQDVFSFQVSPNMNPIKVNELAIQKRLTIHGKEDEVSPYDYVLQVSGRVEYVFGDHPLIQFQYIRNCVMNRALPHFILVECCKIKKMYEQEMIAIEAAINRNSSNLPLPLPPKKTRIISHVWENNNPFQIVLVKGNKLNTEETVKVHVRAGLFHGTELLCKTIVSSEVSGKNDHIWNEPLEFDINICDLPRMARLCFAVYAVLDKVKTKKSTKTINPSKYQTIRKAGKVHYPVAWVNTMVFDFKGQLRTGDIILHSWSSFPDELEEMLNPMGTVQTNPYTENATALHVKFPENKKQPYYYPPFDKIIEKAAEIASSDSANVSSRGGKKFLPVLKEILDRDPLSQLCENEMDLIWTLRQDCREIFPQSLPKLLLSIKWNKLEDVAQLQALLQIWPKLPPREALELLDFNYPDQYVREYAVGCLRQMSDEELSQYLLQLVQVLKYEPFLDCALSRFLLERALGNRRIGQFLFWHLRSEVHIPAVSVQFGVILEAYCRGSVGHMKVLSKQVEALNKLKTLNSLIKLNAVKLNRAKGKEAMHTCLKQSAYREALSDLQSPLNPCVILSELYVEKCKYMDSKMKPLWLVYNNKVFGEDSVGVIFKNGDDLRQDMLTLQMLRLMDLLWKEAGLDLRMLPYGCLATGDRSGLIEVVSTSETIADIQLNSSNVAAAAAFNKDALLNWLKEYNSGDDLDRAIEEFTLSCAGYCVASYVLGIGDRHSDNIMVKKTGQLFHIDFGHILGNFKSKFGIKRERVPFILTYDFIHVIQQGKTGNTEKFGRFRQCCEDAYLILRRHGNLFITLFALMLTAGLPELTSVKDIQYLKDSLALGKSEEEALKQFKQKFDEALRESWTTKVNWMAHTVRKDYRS
PI3Kbeta, sequence (P27986 whole entry partner): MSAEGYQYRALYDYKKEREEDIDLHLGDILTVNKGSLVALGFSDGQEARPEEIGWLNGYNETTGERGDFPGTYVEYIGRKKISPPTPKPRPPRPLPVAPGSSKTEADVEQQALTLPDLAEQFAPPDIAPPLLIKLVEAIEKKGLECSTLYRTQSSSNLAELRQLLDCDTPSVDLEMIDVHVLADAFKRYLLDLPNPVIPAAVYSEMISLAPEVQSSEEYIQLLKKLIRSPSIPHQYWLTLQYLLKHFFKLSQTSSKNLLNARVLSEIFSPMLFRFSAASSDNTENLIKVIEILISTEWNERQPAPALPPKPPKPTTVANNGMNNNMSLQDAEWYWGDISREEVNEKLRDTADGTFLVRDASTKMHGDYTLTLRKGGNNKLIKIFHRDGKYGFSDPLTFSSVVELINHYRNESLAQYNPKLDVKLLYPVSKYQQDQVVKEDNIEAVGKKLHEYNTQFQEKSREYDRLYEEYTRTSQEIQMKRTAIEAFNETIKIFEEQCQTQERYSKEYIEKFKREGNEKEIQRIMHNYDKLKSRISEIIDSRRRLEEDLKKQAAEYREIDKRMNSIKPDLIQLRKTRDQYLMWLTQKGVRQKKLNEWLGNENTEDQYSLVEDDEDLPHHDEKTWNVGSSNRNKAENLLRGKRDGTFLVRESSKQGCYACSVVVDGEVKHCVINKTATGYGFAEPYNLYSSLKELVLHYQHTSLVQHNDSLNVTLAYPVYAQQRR
Protocol: (§1) The efficacy of the compounds according to the invention in the inhibition of PI3K-induced lipid phosphorylation can be investigated in the following binding assay. The assay combines scintillation proximity assay (SPA) technology (Amersham) with the ability of neomycin (a polycationic antibiotic) to bind phospholipids with high affinity and specificity. […] The coating of SPA beads with neomycin allows the detection of phosphorylated lipid substrates after incubation with recombinant PI3K and radioactive ATP in the same well by trapping the radioactive phospholipids by the SPA beads owing to their specific binding to neomycin. […] After incubation at room temperature for 120 minutes with gentle stirring, the reaction was stopped by addition of 200 μl of a solution comprising 250 μg of neomycin-coated PVT-SPA beads, ATP 60 mM and EDTA 6.2 mM in PBS. The assay is incubated at room temperature for a further 60 minutes with gentle stirring in order to enable binding of the phospholipids to the neomycin-SPA beads. After precipitation of the neomycin-coated PVT-SPA beads over 5 minutes at 1500×g, radioactive Ptdlns(3)P is quantified by scintillation counting in a Wallac Micro-Beta™ plate counter.

PI3Kalpha = PI3Kalpha (Homo sapiens, UniProt P42336); experiment: Biochemical PI3Kalpha assay (neomycin SPA, lipid phosphorylation); conditions: human recombinant GST-PI3K
PI3Kalpha, sequence (P42336 whole entry): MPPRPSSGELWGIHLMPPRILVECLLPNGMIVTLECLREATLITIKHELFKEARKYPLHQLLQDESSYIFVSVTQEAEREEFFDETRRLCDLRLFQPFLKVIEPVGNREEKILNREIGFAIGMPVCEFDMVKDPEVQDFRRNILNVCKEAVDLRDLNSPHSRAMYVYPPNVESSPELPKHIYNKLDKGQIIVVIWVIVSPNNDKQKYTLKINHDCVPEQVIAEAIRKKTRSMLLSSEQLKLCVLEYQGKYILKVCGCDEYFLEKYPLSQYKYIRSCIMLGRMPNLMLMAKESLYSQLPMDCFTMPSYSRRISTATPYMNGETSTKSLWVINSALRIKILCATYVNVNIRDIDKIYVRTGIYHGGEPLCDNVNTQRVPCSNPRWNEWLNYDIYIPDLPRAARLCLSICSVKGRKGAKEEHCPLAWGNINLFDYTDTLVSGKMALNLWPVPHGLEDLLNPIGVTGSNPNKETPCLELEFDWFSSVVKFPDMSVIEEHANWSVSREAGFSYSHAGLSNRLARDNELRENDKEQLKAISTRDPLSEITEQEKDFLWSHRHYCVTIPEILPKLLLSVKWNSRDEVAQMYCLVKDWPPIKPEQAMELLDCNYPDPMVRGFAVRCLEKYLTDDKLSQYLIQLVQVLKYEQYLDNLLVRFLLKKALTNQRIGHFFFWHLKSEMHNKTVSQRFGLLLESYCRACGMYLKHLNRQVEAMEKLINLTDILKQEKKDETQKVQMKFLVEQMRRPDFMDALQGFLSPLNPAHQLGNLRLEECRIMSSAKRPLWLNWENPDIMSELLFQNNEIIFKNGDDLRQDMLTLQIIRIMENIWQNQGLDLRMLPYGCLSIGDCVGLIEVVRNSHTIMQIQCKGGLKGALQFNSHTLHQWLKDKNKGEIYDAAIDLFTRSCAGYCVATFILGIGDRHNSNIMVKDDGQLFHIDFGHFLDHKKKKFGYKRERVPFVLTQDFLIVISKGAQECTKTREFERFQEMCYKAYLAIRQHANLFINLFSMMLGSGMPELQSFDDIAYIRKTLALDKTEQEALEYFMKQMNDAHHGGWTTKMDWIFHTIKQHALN
PI3Kalpha, sequence (P27986 whole entry partner): as the sequence (P27986 whole entry partner) above
Protocol: as §1

[2] = molecular target: recombinant PI3Kalpha (shortened form of the catalytic subunit) (Homo sapiens, UniProt P42336); experiment: BIACORE PI3K binding assay (SPR); conditions: 25° C.
recombinant PI3Kalpha (shortened form of the catalytic subunit), sequence (P42336 151-1068 limits assumed): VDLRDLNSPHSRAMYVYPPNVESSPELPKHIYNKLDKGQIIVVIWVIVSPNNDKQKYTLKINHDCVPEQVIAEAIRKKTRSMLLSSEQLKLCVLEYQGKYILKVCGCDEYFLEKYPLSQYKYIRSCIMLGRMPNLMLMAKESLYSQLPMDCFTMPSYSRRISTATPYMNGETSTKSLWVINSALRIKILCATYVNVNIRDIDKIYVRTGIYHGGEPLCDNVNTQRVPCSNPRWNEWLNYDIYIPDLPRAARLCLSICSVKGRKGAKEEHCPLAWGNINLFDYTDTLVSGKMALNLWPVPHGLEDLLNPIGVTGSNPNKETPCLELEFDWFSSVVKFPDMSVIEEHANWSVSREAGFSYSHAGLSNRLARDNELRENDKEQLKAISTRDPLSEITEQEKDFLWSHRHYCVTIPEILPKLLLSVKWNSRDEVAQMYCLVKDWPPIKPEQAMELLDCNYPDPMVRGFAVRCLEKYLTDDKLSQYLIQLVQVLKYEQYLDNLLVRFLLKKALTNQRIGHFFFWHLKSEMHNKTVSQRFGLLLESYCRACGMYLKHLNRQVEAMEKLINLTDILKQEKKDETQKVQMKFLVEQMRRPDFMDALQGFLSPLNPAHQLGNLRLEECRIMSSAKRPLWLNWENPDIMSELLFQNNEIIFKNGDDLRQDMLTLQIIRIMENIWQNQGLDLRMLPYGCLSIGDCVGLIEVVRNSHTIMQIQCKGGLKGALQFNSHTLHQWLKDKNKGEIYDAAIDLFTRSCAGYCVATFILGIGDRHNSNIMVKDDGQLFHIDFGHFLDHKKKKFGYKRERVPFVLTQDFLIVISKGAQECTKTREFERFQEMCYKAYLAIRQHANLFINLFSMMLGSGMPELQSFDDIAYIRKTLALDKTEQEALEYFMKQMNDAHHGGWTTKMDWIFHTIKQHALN
Protocol: SPR measurements of the binding affinities and binding kinetics on PI3Kalpha surfaces with the aid of Biacore systems. The experiments are carried out on a Biacore S51 “Compound Characterization” or a Biacore T100 instrument utilising the default application “Kinetics/Affinity” Experimental conditions: recombinant PI3Kalpha (shortened form of the catalytic subunit, missing N terminal from about 100 to 150 aa, Mw about 110 kDa, prepared by Proteros Biostructures GmbH) is immobilised on Biacore CM5 chips (25° C., flow rate: 10 μl/min, utilising amine coupling at pH 7.40—Biacore Standard protocol). PI3Kalpha is employed in concentrations between 10 and 25 μg/ml. Depending on the duration of the injection time, immobilisation levels from 1700 to 11000 RU are achieved. The substances to be measured are added in the form of a titration series. The substance concentration is doubled for each subsequent injection. 10 different substance concentrations which cover a 500-fold dilution range are usually injected. […] Kinetic titration experiments are carried out at 25° C. with a flow rate of 30 μl/min, the sample contact time is 180 s, and the dissociation time is 240 s in a running buffer (20 mM HEPES pH7.40, 150 mM NaCl, 5 mM MgCl2, 1 mM DTT, 0.1 mM EDTA, 0.05% Tween 20) comprising 2% of DMSO. Buffer injections (as double references) identical to the sample injections are carried out in each case at the beginning of a continuous series. Solvent correction cycles (eight correction points, 1.4%-2.8% DMSO) are carried out at equal intervals. In order to condition the surface, at least five start-up cycles (buffer injections) are carried out. Data points are collected with a sample rate of 10 Hz. Surface regeneration is carried out after each measurement cycle, apart from after the solvent correction runs. For this purpose, two times 100 mM NaHCO3 pH 8.60 are injected for 30 sec. Data sets are processed and analysed using the Biacore S51 Evaluation software, version 1.2.1, or Biacore T100 Evaluation, version 2.0. Solvent-corrected and double-referenced association and dissociation phase data are adapted to a simple 1:1 interaction model with mass transport limitations.

SMILES	IC50 (DNA-PK protein complex) [nM]	IC50 [1] [nM]	IC50 (PI3Kbeta) [nM]	IC50 (PI3Kalpha) [nM]	Kd [2] [nM]
CC(=O)Nc1ncc(-c2ccnc(-c3cn(C)c(=O)n3-c3cccc(C#N)c3)c2)cc1C(F)(F)F [Example A68, N-{2′-[3-(3-Cyanophenyl)-1-methyl-2-oxo-2,3-dihydro-1H-imidazol-4-yl]-5-trifluoromethyl-[3,4′]bipyridinyl-6-yl}acetamide]	100 to 10000	100 to 10000	> 10000	100 to 10000	–
Cn1cc(-c2cc(-c3cnc(N)c(C#N)n3)ccn2)n(-c2ccc(C(C)(C)C#N)cc2)c1=O [Example A70, 3-Amino-6-(2-{3-[4-(cyanodimethylmethyl)phenyl]-1-methyl-2-oxo-2,3-dihydro-1H-imidazol-4-yl}pyridin-4-yl)pyrazine-2-carbonitrile]	100 to 10000	100 to 10000	100 to 10000	100 to 10000	–
Cn1cc(-c2cc(-c3cnc4[nH]ccc4n3)ccn2)n(-c2ccc(C(C)(C)C#N)cc2)c1=O [Example A78, 2-Methyl-2-(4-{3-methyl-2-oxo-5-[4-(5H-pyrrolo[2,3-b]pyrazin-2-yl)pyridin-2-yl]-2,3-dihydroimidazol-1-yl}phenyl)propionitrile]	100 to 10000	100 to 10000	100 to 10000	100 to 10000	–
CNCc1ccc(-c2ccnc(-c3cn(C)c(=O)n3-c3ccc(C(C)(C)C#N)cc3)c2)cn1 [Example A95, 2-Methyl-2-{4-[3-methyl-5-(6-methylaminomethyl-[3,4′]bipyridinyl-2′-yl)-2-oxo-2,3-dihydroimidazol-1-yl]phenyl}propionitrile]	100 to 10000	> 10000	> 10000	> 10000	–
Cn1cc(-c2cc(-c3c[nH]c4ncccc34)ccn2)n(-c2ccc(C(C)(C)C#N)cc2)c1=O [Example A100, 2-Methyl-2-(4-{3-methyl-2-oxo-5-[4-(1H-pyrrolo[2,3-b]pyridin-3-yl)pyridin-2-yl]-2,3-dihydroimidazol-1-yl}phenyl)propionitrile]	100 to 10000	100 to 10000	100 to 10000	100 to 10000	–
CN1CCN(c2ccc(-n3c(-c4cc(-c5ccc6[nH]ccc6c5)ccn4)cn(C)c3=O)cc2C(F)(F)F)CC1 [Example A102, 4-[4-(1H-Indol-5-yl)pyridin-2-yl]-1-methyl-3-[4-(4-methylpiperazin-1-yl)-3-trifluoromethylphenyl]-1,3-dihydroimidazol-2-one]	100 to 10000	100 to 10000	–	100 to 10000	–
CN1CCN(c2ccc(-n3c(-c4cc(-c5cnc(N)c(C(F)(F)F)c5)ccn4)cn(C)c3=O)cc2C(F)(F)F)CC1 [Example A103, 4-(6-Amino-5-trifluoromethyl-[3,4′]bipyridinyl-2′-yl)-1-methyl-3-[4-(4-methyl-piperazin-1-yl)-3-trifluoromethylphenyl]-1,3-dihydroimidazol-2-one]	100 to 10000	100 to 10000	100 to 10000	100 to 10000	–
Cn1cc(-c2cc(-c3cnc4[nH]ccc4c3)ccn2)n(-c2ccc(N3CCN(Cc4cccnc4)CC3)c(C(F)(F)F)c2)c1=O [Example A106, 1-Methyl-3-[4-(4-pyridin-3-ylmethylpiperazin-1-yl)-3-trifluoromethylphenyl]-4-[4-(1H-pyrrolo[2,3-b]pyridin-5-yl)pyridin-2-yl]-1,3-dihydroimidazol-2-one]	100 to 10000	0.1 to 100	–	–	–
COc1ccc(Cn2c(-c3cc(-c4cnc(NC(C)=O)c(C(F)(F)F)c4)ccn3)cn(C)c2=O)cc1 [Example A111, N-{2′-[3-(4-Methoxybenzyl)-1-methyl-2-oxo-2,3-dihydro-1H-imidazol-4-yl]-5-trifluoromethyl-[3,4′]bipyridinyl-6-yl}acetamide]	> 10000	> 10000	> 10000	> 10000	–

Further lines, results first:

IC50 (DNA-PK protein complex) [nM]	IC50 [1] [nM]	IC50 (PI3Kbeta) [nM]	IC50 (PI3Kalpha) [nM]	Kd [2] [nM]	SMILES
100 to 10000	–	–	–	–	Cn1cc(-c2cncc(-c3cnc4ccccc4c3)c2)n(-c2ccc(C(C)(C)C#N)cc2)c1=O [Example A2, 2-Methyl-2-{4-[3-methyl-2-oxo-5-(5-quinolin-3-ylpyridin-3-yl)-2,3-dihydroimidazol-1-yl]phenyl}propionitrile]
100 to 10000	100 to 10000	100 to 10000	100 to 10000	100 to 10000	COc1ccc(-c2ccnc(-c3c[nH]c(=O)n3-c3ccc(N4CCNCC4)c(C(F)(F)F)c3)c2)cn1 [Example A4, 5-(6-Methoxy-[3,4′]bipyridinyl-2′-yl)-1-(4-piperazin-1-yl-3-trifluoromethylphenyl)-1,3-dihydroimidazol-2-one]
0.1 to 100	100 to 10000	100 to 10000	100 to 10000	–	Cn1cc(-c2cc(-c3cnc4c(ccn4C)c3)ccn2)n(-c2ccc(C(C)(C)C#N)cc2)c1=O [Example A54, 2-Methyl-2-(4-{3-methyl-5-[4-(1-methyl-1H-pyrrolo[2,3-b]pyridin-5-yl)pyridin-2-yl]-2-oxo-2,3-dihydroimidazol-1-yl}phenyl)propionitrile]
0.1 to 100	> 10000	100 to 10000	100 to 10000	–	Cn1cc(-c2cc(-c3cnc4nccnc4c3)ccn2)n(-c2ccc(C(C)(C)C#N)cc2)c1=O [Example A81, 2-Methyl-2-{4-[3-methyl-2-oxo-5-(4-pyrido[2,3-b]pyrazin-7-ylpyridin-2-yl)-2,3-dihydroimidazol-1-yl]phenyl}propionitrile]
0.1 to 100	100 to 10000	100 to 10000	100 to 10000	–	CN1CCN(c2ccc(-n3c(-c4cc(-c5cnc(N)c(C(F)(F)F)c5)ccn4)cn(C)c3=O)cc2C#N)CC1 [Example A82, 5-[5-(6-Amino-5-trifluoromethyl-[3,4′]bipyridinyl-2′-yl)-3-methyl-2-oxo-2,3-dihydroimidazol-1-yl]-2-(4-methylpiperazin-1-yl)benzonitrile]
0.1 to 100	100 to 10000	–	100 to 10000	–	Cc1cc2cc(-c3ccnc(-c4cn(C)c(=O)n4-c4cccc(Oc5ccccc5)c4)c3)cnc2[nH]1 [Example A104, 1-Methyl-4-[4-(2-methyl-1H-pyrrolo[2,3-b]pyridin-5-yl)pyridin-2-yl]-3-(3-phenoxy-phenyl)-1,3-dihydroimidazol-2-one]
0.1 to 100	100 to 10000	–	–	–	Cn1cc(-c2cc(-c3cc(F)c(N)c(C(F)(F)F)c3)ccn2)n(-c2ccc(C(C)(C)C#N)cc2)c1=O [Example A107, 2-(4-{5-[4-(4-Amino-3-fluoro-5-trifluoromethylphenyl)pyridin-2-yl]-3-methyl-2-oxo-2,3-dihydroimidazol-1-yl}phenyl)-2-methylpropionitrile]
